Data reported in publication PMC8847695 (Frontiers in Chemistry, 2022).

What was measured:
Format in all cases: binding
Details in all cases: 1 = hit, 0 = no hit
AAK1 (121-471) = AAK1 (121-471) (Homo sapiens, UniProt Q2M2I8); test: STD-NMR fragment screening, AAK1
In short: (§1)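 Saturation-transfer difference NMR was run at 25°C and 700 MHz with 20 µM protein, two fragments at 1 mM each, and 10% DMSO-d6. On-resonance saturation was at 0.5–0.6 ppm and off-resonance at 40 ppm, with a 3 s Gaussian-pulse train. A hit required a difference-spectrum peak at least three times the local noise.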

IDO1 (1-435) = molecular target: T1, IDO1 (1-435) (Homo sapiens, UniProt P14902); test: STD-NMR fragment screening, IDO1
T1 construct: His-tag of pET15b with TEV site (thrombin site replaced) (cleaved yes); made in house; host or cells: E. coli Rosetta 2 (DE3) pLysS
T1 sequence (P14902 whole entry, the tested form may be a part): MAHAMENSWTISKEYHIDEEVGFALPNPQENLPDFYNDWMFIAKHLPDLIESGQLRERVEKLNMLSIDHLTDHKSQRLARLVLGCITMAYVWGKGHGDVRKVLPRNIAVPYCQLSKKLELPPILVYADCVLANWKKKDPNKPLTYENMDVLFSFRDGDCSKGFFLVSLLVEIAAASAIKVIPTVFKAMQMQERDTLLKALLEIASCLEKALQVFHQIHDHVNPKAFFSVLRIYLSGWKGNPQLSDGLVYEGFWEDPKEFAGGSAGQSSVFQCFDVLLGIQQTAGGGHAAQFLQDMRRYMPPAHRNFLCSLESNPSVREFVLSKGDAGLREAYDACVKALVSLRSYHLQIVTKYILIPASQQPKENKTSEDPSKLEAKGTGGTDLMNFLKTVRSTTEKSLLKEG
In short: as §1

DOT1L (1-416) = molecular target: T2, DOT1L (1-416) (Homo sapiens, UniProt Q8TEK3); test: STD-NMR fragment screening, DOT1L
T2 construct: made in house; host or cells: E. coli BL21 (DE3) pLysS
T2 sequence (Q8TEK3 1-416): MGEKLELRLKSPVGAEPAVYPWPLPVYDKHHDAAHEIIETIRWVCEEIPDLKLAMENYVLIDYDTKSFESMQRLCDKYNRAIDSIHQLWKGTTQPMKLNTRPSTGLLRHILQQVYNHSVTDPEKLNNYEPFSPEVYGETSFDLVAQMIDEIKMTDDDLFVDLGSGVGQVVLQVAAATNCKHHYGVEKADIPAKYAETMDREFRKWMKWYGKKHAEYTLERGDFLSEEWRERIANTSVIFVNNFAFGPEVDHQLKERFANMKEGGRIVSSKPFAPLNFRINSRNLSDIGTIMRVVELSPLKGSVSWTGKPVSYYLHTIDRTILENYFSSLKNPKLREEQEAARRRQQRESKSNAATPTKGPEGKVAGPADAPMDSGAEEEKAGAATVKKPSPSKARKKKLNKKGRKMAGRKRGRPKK
In short: as §1

CAMK1G (1-320) = molecular target: T3, CAMK1G (1-320) (Homo sapiens, UniProt Q96NX5); test: STD-NMR fragment screening, CAMK1G
T3 construct: made in house; host or cells: E. coli BL21 (DE3) pLysS
T3 sequence (Q96NX5 1-320): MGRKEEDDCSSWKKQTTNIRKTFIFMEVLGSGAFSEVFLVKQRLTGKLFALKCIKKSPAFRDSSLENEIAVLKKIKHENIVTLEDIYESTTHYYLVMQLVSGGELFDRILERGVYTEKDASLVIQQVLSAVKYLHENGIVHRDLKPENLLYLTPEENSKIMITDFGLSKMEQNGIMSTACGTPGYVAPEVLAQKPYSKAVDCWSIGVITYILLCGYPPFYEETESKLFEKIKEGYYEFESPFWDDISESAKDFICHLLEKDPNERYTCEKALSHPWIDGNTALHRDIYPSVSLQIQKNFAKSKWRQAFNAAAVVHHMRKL
In short: as §1

AAK1 (121-471), sequence (Q2M2I8 46-315 limits assumed): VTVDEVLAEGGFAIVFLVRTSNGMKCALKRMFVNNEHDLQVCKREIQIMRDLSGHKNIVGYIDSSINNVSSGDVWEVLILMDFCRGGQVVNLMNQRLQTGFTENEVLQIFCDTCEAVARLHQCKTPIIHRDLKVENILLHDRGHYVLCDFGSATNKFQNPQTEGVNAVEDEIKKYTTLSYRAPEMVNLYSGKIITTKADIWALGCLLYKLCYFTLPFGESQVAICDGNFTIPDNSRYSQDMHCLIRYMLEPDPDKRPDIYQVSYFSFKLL

| Compound | AAK1 (STD-NMR hit flag) (AAK1 (121-471)) | IDO1 (STD-NMR hit flag) (IDO1 (1-435)) | DOT1L (STD-NMR hit flag) (DOT1L (1-416)) | CAMK1G (STD-NMR hit flag) (CAMK1G (1-320)) |
| --- | --- | --- | --- | --- |
| O=C(O)c1csc(Cl)n1 [Fragment B02291228] | 0 | 0 | 0 | 0 |
| Clc1cccc2nnnn12 [Fragment B02291229] | 0 | 0 | 0 | 0 |
| Nc1c(Cl)ncnc1NC1CC1 [Fragment B02291230] | 1 | 0 | 0 | 1 |
| Nc1ccc(Br)cn1 [Fragment B02291232] | 1 | 0 | 0 | 0 |
| OCc1c(Cl)nc2sccn12 [Fragment B02291233] | 1 | 0 | 0 | 0 |
| Cn1c(Cl)c(C#N)c(=O)n(C)c1=O [Fragment B02291234] | 1 | 1 | 1 | 1 |
| OCc1cc2c(cc1Cl)OCO2 [Fragment B02291235] | 0 | 0 | 0 | 1 |
| O=S(=O)(c1ccc(Cl)s1)N1CCNCC1 [Fragment B02291236] | 0 | 0 | 0 | 0 |
| CC(C)c1nsc(Cl)n1 [Fragment B02291237] | 0 | 0 | 0 | 0 |
| Nc1ncc(F)cc1I [Fragment B02291238] | 0 | 0 | 0 | 0 |
| O=C(O)c1ccnc(Cl)c1 [Fragment B02291239] | 0 | 0 | 0 | 0 |
| Clc1cnccn1 [Fragment B02291240] | 0 | 0 | 0 | 0 |
| Clc1ccc(CN2CCNCC2)s1 [Fragment B02291241] | 0 | 0 | 0 | 0 |
| NCc1cc(Cl)c2c(c1)OCCCO2 [Fragment B02291242] | 0 | 0 | 0 | 0 |
| Cc1nn(CC(=O)O)c(C)c1Cl [Fragment B02291243] | 0 | 1 | 0 | 1 |
| Nc1cc(Cl)cc([N+](=O)[O-])c1O [Fragment B02291244] | 0 | 0 | 0 | 0 |
| O=C(O)c1ccc(Br)cn1 [Fragment B02291245] | 0 | 0 | 0 | 0 |
| COc1cc(OC)nc(Cl)n1 [Fragment B02291246] | 1 | 1 | 0 | 0 |
| O=C(O)C(O)c1ccccc1Cl (stereo not shown) [Fragment B02291247] | 0 | 0 | 0 | 0 |
| O=c1[nH]cc(Br)c(=O)[nH]1 [Fragment B02291248] | 1 | 0 | 0 | 1 |
| O=C(O)Cc1ccc(Cl)nc1 [Fragment B02291249] | 0 | 0 | 0 | 0 |
| Cc1nn(CCO)c(N)c1I [Fragment B02291250] | 0 | 0 | 0 | 1 |
| O=C(O)c1cnc(Cl)cn1 [Fragment B02291251] | 0 | 0 | 0 | 0 |
| Cn1nc(Br)c(C(=O)NCC(=O)O)c1N [Fragment B02291252] | 1 | 0 | 0 | 0 |
| O=C1CCS(=O)(=O)c2ccc(Cl)cc21 [Fragment B02291253] | 0 | 0 | 0 | 1 |

| Compound | AAK1 (STD-NMR hit flag) (AAK1 (121-471)) | IDO1 (STD-NMR hit flag) (IDO1 (1-435)) | DOT1L (STD-NMR hit flag) (DOT1L (1-416)) | CAMK1G (STD-NMR hit flag) (CAMK1G (1-320)) |
| --- | --- | --- | --- | --- |
| Clc1ncnc2[nH]ccc12 [Fragment B02291254] | 1 | 1 | 0 | 1 |
| O=C1Nc2cccc(Cl)c2C1=O [Fragment B02291255] | 0 | 0 | 0 | 0 |
| Clc1cncc(-n2cccn2)n1 [Fragment B02291256] | 1 | 0 | 0 | 1 |
| N#Cc1ccc(O)c(Cl)c1 [Fragment B02291257] | 1 | 0 | 0 | 0 |
| O=C(O)c1cccnc1Cl [Fragment B02291258] | 0 | 0 | 0 | 0 |
| Nc1ccc(C(=O)O)c(Cl)c1 [Fragment B02291259] | 0 | 0 | 0 | 0 |
| Nc1ccc(Cl)c(C(=O)O)c1 [Fragment B02291260] | 0 | 0 | 0 | 0 |
| O=C(O)c1cncc(Br)c1 [Fragment B02291261] | 1 | 0 | 1 | 0 |
| Fc1ncccc1I [Fragment B02291262] | 0 | 0 | 0 | 0 |
| NS(=O)(=O)c1cc(C(=O)O)ccc1Cl [Fragment B02291263] | 0 | 0 | 0 | 0 |
| O=C(O)c1cc(Br)c[nH]1 [Fragment B02291264] | 0 | 0 | 0 | 0 |
| Clc1n[nH]c2ccccc12 [Fragment B02291265] | 1 | 0 | 0 | 1 |
| Cn1c2nc(Br)nc-2c(O)n(C)c1=O [Fragment B02291266] | 1 | 1 | 0 | 1 |
| Clc1cnc(Cl)nc1 [Fragment B02291267] | 0 | 0 | 0 | 0 |
| Clc1ccncc1 [Fragment B02291269] | 0 | 0 | 0 | 0 |
| CCC(N)c1ccc(Cl)cc1 (stereo not shown) [Fragment B02291270] | 1 | 1 | 1 | 1 |
| N#Cc1ccnc(Cl)c1 [Fragment B02291271] | 0 | 0 | 0 | 0 |
| Brc1noc(C2CC2)n1 [Fragment B02291272] | 0 | 0 | 0 | 0 |
| CNc1cc(Cl)c2c(c1)OCO2 [Fragment B02294481] | 0 | 0 | 0 | 0 |
| FC(F)(F)c1cnc(Cl)nc1 [Fragment B02294482] | 0 | 0 | 0 | 0 |
| Cc1n[nH]c(C(=O)O)c1Br [Fragment B02294483] | 1 | 0 | 0 | 0 |
| Oc1ccc(Cl)cc1 [Fragment B02294485] | 0 | 0 | 0 | 0 |
| Clc1cnc2ccccn12 [Fragment B02294486] | 1 | 1 | 0 | 1 |
| COc1cc(Cl)cnc1OC [Fragment B02297394] | 1 | 1 | 0 | 1 |
